The target in data set [1] is Voltage-gated inwardly rectifying potassium channel KCNH2 (Homo sapiens, UniProt Q12809).
The target in data set [2] is T1, Tyrosine-protein phosphatase non-receptor type 11 (Homo sapiens, UniProt Q06124).
T1 sequence (Q06124 whole entry): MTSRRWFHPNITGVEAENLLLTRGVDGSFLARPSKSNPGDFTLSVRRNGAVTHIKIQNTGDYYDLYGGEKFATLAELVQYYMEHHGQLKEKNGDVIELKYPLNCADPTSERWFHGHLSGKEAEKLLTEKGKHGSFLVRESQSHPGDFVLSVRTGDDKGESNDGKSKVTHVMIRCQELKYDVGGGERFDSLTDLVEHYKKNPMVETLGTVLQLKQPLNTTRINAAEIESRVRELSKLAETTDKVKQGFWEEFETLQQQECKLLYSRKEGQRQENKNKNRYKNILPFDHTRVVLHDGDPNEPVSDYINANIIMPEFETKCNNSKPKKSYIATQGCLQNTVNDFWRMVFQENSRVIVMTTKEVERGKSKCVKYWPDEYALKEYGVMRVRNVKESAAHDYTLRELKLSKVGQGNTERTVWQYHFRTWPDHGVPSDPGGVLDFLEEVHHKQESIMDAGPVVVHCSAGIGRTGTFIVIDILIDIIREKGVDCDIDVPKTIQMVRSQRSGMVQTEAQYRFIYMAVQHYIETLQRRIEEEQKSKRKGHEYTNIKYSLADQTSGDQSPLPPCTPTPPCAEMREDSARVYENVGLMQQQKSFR
As to the kind of experiment: Inhibition of SHP2 in human KYSE520 cells assessed as suppression of ERK phosphorylation after 2 hrs by AlphaScreen SureFire Phospho-ERK1/2 assay. In kind it is cell-based.

Another data set concerns KYSE-520 cell line. Description: Antiproliferative activity against human KYSE520 cells after 5 days by Celltiter-Glo reagent-based assay. Particulars: KYSE-520, 5 days. (In general: Cellular ATP, detected with luciferase, serves as a proxy for viable cell number.)
Data set [3] addresses T1, Tyrosine-protein phosphatase non-receptor type 11. Description: Inhibition of human 6His-tagged SHP2 (2 to 593 residues) expressed in Escherichia coli BL21 Star (DE3) using DiFMUP as substrate preincubated for 30 mins followed by substrate addition by fluorescence assay.
Data set [4] deals with T2, Tyrosine-protein phosphatase non-receptor type 11 (Homo sapiens) (UniProt Q06124).
T2 sequence (whole entry): T1 sequence (Q06124 whole entry)
Description: Inhibition of SHP2 (unknown origin) at 40 uM.

In data set [5] the target is T2, Tyrosine-protein phosphatase non-receptor type 11 (Homo sapiens). Description: Stabilization of SHP2 (unknown origin) assessed as thermal denaturation by measuring change in melting temperature at 100 uM by differential scanning fluorimetry. In general terms: Differential scanning fluorimetry follows unfolding on heating by fluorescence.
Data set [6] is described as follows: Volume of distribution in Sprague-Dawley rat at 1 mg/kg, iv or 5 mg/kg, po. Format: ADME, organism-based. To be noted: in vivo.
For data set [7], the species on record is Mus musculus. To be noted: 100 mg/kg.
The nature of data set [8]: Oral bioavailability in Sprague-Dawley rat at 5 mg/kg. In kind it is ADME, organism-based. Particulars: in vivo.
The species named for data set [9] is Mus musculus. Particulars: 100 mg/kg. This is another data set of the same source.
Data set [10] can be described thus: Terminal half life in Sprague-Dawley rat at 1 mg/kg, iv or 5 mg/kg, po. In kind it is ADME, organism-based. Particulars: in vivo, read-out: beta t1/2 (converted).
Data set [11] is described as follows: Half life in rat liver microsomes. In kind it is ADME, Microsome. (In general: Liver microsomes are a subcellular fraction often used to study metabolism.)
Data set [12] is described as follows: Clearance in rat liver microsomes. In kind it is ADME, Microsome. Particulars: read-out: CLH.
The nature of data set [13]: Clearance in Sprague-Dawley rat at 1 mg/kg, iv or 5 mg/kg, po relative to hepatic extraction. In kind it is ADME, organism-based. Particulars: in vivo.

Activity calls are given as the source filed them. The calls are words filed in the database; no cut-off is given here. Bounds are passed on as bounds.

Voltage-gated inwardly rectifying potassium channel KCNH2, sequence (Q12809 whole entry): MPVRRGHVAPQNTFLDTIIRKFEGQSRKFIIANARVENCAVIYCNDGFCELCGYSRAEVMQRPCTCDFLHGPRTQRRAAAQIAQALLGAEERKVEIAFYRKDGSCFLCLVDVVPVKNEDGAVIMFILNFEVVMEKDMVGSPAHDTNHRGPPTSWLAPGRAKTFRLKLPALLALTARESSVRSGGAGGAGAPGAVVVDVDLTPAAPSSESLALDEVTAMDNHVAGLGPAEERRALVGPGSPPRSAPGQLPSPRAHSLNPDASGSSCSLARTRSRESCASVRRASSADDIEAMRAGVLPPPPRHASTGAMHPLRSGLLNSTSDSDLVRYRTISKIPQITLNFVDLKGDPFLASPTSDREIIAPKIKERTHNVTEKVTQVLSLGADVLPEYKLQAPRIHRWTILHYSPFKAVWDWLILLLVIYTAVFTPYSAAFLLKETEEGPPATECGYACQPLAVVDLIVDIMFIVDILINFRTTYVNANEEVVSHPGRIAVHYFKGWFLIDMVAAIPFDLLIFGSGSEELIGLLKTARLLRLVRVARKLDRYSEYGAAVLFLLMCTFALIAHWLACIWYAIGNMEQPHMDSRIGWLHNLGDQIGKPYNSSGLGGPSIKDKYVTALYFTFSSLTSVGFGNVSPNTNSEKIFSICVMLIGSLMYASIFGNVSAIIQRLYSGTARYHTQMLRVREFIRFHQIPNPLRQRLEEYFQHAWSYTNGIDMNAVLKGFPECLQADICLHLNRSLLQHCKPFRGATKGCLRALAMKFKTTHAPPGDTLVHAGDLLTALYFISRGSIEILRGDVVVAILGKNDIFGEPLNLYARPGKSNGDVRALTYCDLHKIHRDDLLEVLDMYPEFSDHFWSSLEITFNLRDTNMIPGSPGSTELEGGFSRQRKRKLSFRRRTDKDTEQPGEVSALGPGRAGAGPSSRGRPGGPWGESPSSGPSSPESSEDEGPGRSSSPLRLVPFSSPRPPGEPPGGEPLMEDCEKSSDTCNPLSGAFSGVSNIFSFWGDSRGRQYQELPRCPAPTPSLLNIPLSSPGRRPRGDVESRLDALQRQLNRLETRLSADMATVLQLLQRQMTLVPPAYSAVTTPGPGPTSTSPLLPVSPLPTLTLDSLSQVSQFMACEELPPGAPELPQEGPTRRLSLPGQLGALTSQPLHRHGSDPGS

What is called IC50 is the point on the concentration scale where inhibition reaches its midpoint. For `C[C@@H]1OCC2(CCN(c3nc4[nH]nc(-c5ccnc(N)c5Cl)c4c(=O)n3C)CC2)[C@@H]1N`, the IC50 in data set [1] is over 30000 nM; in [2] it was 103 nM; with KYSE-520 cell line, 1200 nM; in data set [3], 32 nM.

For `C[C@@H]1OCC2(CCN(c3nc4[nH]nc(-c5ccnc(NC6CCC6)c5Cl)c4c(=O)n3C)CC2)[C@@H]1N`, the concentration for half-maximal inhibition (IC50) in data set [1] came out at 1900 nM; in data set [2], 260 nM; in the data set with KYSE-520 cell line, 380 nM; in data set [3], 350 nM.

Turning to `CNc1nccc(-c2n[nH]c3nc(N4CCC5(CC4)CO[C@@H](C)[C@H]5N)n(C)c(=O)c23)c1Cl`, the half-maximal inhibitory concentration (IC50) is over 30000 nM in [1], 22 nM in data set [2], 370 nM in the data set on KYSE-520 cell line and 55 nM in [3].

For orientation: inhibition means the drop in the measured response relative to a control, in per cent. Broadly, the ΔTm is the change in melting temperature against a reference sample. On to `Cc1ccc(-c2cc(C(=O)O)c3c(-c4ccc(Br)cc4)n[nH]c3n2)cc1`, for which the inhibition in [4] amounted to 30%. Further, in [5], the ΔTm is 0.62 °C.

For `Cn1c(N2CCC3(CC2)COC[C@H]3N)nc2[nH]nc(-c3cccc(Cl)c3Cl)c2c1=O`, the values for the IC50 (in [2]; with KYSE-520 cell line) were 123 nM and 1730 nM, respectively.

By bioavailability is commonly meant dose-corrected exposure relative to a reference, in per cent. Read a low bioavailability as little systemic uptake. Take `C[C@@H]1OCC2(CCN(c3nc4[nH]nc(-c5cccc(Cl)c5Cl)c4c(=O)n3C)CC2)[C@@H]1N`: the Vd in data set [6] is 10.5 L/kg. In addition, the inhibition entry in the data set filed under Mus musculus [7] and in the data set filed under Mus musculus [9] was “Active” in each case. The compound further gave a bioavailability in [8] of 51%. For the same compound, in the data set on KYSE-520 cell line, the concentration for half-maximal inhibition (IC50) came to 167 nM. Also, the half-life in data set [10] is 4.6 h.

For the compound `Cn1c(N2CCC3(CCC[C@H]3N)CC2)nc2n[nH]c(-c3cccc(Cl)c3Cl)c2c1=O`, the IC50 in [1] was found to be 250 nM; in [2] it was 30 nM; with KYSE-520 cell line it was 465 nM; in [3], 31 nM.

Regarding `C[C@@H]1OCC2(CCN(c3nc4[nH]nc(-c5ccncc5)c4c(=O)n3C)CC2)[C@@H]1N`, the values for the IC50 (in data set [1]; in [2]; with KYSE-520 cell line) were over 30000 nM, 129 nM and 1260 nM, respectively.

Regarding `Cn1c(N2CCC(C)(CN)CC2)nc2[nH]nc(-c3cccc(Cl)c3Cl)c2c1=O`, in the data set with KYSE-520 cell line, half-maximal inhibition (IC50) required 13500 nM.

As to `C[C@@H]1OCC2(CCN(c3nc4[nH]nc(-c5ccnc(NC6CC6)c5Cl)c4c(=O)n3C)CC2)[C@@H]1N`, in [6], the Vd was determined as 3.9 L/kg. The values for the half-life in data set [11] and in data set [10] were 0.887 h and 2.7 h, respectively. This compound also returned a bioavailability in [8] of 2%. In addition, in [12], the microsomal CLint stood at 26.1 µL/min/mg. In data set [13], this compound registered a CL of 83%. In addition, in the data set with KYSE-520 cell line, the IC50 is 360 nM.

Consider `C[C@@H]1OCC2(CCN(c3cnc4c(-c5cccc(Cl)c5Cl)c[nH]c4n3)CC2)[C@@H]1N`, for which the IC50 came out at 7 nM in data set [1] and 484 nM in data set [2].

Compound `CN(C)Cc1ccc(-c2cc3onc(-c4ccccc4Cl)c3c(=O)n2C)cc1` gave an inhibition in data set [4] of 31%. For the same compound, the ΔTm in [5] stood at 0.67 °C.

In the case of `C[C@@H]1OCC2(CCN(c3cnc4c(-c5cccc(Cl)c5Cl)n[nH]c4n3)CC2)[C@@H]1N`, 460 nM corresponded to half-maximal inhibition in the data set on KYSE-520 cell line (IC50).

As for `Cc1nc(N)ccc1-c1n[nH]c2nc(N3CCC4(CC3)CO[C@@H](C)[C@H]4N)n(C)c(=O)c12`, the 50% inhibitory concentration (IC50) in data set [1] came to 6600 nM; in [2], 38 nM; in the data set on KYSE-520 cell line, 660 nM.

Regarding `C[C@@H]1OCC2(CCN(c3nc4[nH]nc(Sc5ccnc(N)c5Cl)c4c(=O)n3C)CC2)[C@@H]1N`, the IC50 was over 30000 nM in [1], 96 nM in data set [2] and 720 nM with KYSE-520 cell line.

With `C[C@@H]1OCC2(CCN(c3nc4[nH]nc(-c5ccnc(Cl)c5Cl)c4c(=O)n3C)CC2)[C@@H]1N`, half-maximal inhibition in the data set with KYSE-520 cell line (IC50) required 2600 nM.

Source of the values: ChEMBL document CHEMBL4411333, “Optimization of Fused Bicyclic Allosteric SHP2 Inhibitors” (J Med Chem, 2019).
